Type in all cases: biochemical
The target in experiment [1] is T1, Aspergillus niger glucose oxidase (GOx), wild type, SEQ ID NO: 3 (Aspergillus niger, UniProt P13006).
T1 construct: made in house; host or cells: Saccharomyces cerevisiae (pYES2 vector)
The experiment in a line: Kinetic constants by ABTS assay, wt GOx. To be noted: 2.5-100 mM glucose. The source says:
(§1) For detection of GOx activity the ABTS assay was used. 2,2'-azino-bis(3-ethylbenzthiazoline-6-sulphonic acid (ABTS) is commonly used as a substrate with hydrogen peroxide for a peroxidase generating enzyme. Its use allows the reaction kinetics of peroxidases to be followed, to indirectly follow the reaction kinetics of a hydrogen peroxide-producing enzyme or to quantify the amount of hydrogen peroxide in a sample [vanGijlswijk, R.P.M., et al., Fluorochrome-labeled tyramides: Use in immunocytochemistry and fluorescence in situ hybridization. Journal of Histochemistry & Cytochemistry, 1997. 45(3): p. 375-382].
(§2) The kinetic constants were determined using the Specord 200 from (Analytik Jena, Germany) and the ABTS assay [Zhu, Z.W., et al. 2006, Making glucose oxidase fit for biofuel cell applications by directed protein evolution. Biosensors & Bioelectronics, 21(11): 2046-2051]. The measurements were performed in 1 ml of reaction volume and 1 cm light pathway cuvettes, using 2.5, 5, 10, 25, 50 and 100 mM glucose. The data were fitted using Origin 6 (OriginLab Corporation, Northampton).

Experiment [2] deals with T2, Aspergillus niger glucose oxidase (GOx) parent mutant B11, T30V, I94V, SEQ ID NO: 5 (Aspergillus niger, UniProt P13006, I116V/T52V).
T2 construct: made in house; host or cells: Saccharomyces cerevisiae (pYES2 plasmid B11 GOx)
T2 sequence (P13006 23-605 T52V/I116V limits assumed): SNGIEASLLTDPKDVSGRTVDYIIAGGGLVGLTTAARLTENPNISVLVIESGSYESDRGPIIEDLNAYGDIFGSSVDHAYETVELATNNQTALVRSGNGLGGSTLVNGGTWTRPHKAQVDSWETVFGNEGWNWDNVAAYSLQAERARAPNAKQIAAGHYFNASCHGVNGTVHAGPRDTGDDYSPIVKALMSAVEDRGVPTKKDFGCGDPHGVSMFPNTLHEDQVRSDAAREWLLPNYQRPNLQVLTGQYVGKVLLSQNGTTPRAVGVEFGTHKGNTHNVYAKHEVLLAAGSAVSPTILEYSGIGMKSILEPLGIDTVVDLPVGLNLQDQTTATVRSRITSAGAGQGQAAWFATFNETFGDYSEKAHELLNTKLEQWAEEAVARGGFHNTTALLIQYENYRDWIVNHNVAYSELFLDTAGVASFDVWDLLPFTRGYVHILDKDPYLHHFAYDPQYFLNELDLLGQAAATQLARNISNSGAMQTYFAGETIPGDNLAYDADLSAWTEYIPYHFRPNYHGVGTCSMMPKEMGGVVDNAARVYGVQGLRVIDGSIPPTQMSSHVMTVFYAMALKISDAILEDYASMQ
The experiment in a line: Kinetic constants by ABTS assay, parent GOx B11. To be noted: as restated in the description text.
From the text: as §1, §2

Experiment [3] deals with T3, Aspergillus niger glucose oxidase (GOx) variant M12, N2Y, K13E, T30V, I94V, K152R, SEQ ID NO: 1 (Aspergillus niger, UniProt P13006, I116V/K174R/K35E/N24Y/T52V).
T3 construct: made in house; host or cells: Saccharomyces cerevisiae (pYES2)
T3 sequence (P13006 23-605 N24Y/K35E/T52V/I116V/K174R limits assumed): as the sequence (P13006 23-605 T52V/I116V limits assumed) above, with N2Y, K13E, K152R counted along it
Put plainly: Kinetic constants by ABTS assay, GOx mutant M12. Conditions: as restated in the description text.
From the text: as §1, §2

T1 sequence (P13006 23-605 limits assumed): as the sequence (P13006 23-605 T52V/I116V limits assumed) above, with V30T, V94I counted along it

As for `OC[C@H]1OC(O)[C@H](O)[C@@H](O)[C@@H]1O` (stereo partly drawn) [glucose], the kcat in experiment [1] was determined as 54.8 s'; in experiment [2], 80 s'; in experiment [3], 150 s⁻¹.

These data come from EP2415863A1, “Mutant glucose oxidase” (B.R.A.I.N., priority 2010, dated 2012).
